In ChEMBL document CHEMBL1123132, “1-Benzylcyclopropylamine and 1-(phenylcyclopropyl)methylamine: an inactivator and a substrate of monoamine oxidase” (J Med Chem, 1985):

Key:
Format in all cases: protein assay
[1] = molecular target: T1, Monoamine oxidase (Homo sapiens, UniProt P21397+P27338); assay: Evaluated for (Ki value) in competition with oxidation of benzylamine.
T1 sequence (P21397 whole entry): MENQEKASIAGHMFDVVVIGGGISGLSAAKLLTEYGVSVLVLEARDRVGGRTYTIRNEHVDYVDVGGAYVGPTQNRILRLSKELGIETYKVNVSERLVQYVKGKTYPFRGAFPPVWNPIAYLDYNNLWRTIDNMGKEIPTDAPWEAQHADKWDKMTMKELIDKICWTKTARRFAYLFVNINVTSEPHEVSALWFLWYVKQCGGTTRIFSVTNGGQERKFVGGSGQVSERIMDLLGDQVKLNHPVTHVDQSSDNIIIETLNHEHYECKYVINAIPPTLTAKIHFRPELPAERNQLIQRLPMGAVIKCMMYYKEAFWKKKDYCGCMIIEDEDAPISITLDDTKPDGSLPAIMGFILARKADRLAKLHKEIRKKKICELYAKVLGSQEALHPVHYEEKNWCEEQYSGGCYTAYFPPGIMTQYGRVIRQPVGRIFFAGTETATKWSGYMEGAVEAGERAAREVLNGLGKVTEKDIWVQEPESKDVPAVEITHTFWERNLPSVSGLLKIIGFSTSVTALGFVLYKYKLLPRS
T1 sequence (P27338 whole entry): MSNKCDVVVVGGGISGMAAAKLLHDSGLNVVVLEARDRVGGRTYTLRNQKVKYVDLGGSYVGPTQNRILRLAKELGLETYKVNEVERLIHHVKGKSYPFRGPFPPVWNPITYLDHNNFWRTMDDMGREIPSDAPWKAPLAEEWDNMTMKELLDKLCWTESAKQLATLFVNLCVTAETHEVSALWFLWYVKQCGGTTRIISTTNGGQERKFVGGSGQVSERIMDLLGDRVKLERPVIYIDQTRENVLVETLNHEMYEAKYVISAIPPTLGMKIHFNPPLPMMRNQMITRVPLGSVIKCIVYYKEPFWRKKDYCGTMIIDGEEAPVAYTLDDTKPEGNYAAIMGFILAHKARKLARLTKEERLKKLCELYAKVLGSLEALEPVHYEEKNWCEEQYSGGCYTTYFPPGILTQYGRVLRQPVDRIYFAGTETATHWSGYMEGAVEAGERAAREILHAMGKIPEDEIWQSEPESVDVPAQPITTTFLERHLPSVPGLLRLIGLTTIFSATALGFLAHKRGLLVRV

[2] = molecular target: T1, Monoamine oxidase; assay: Evaluated for (Ki value) inactivation of Monoamine oxidase at saturation.
[3] = molecular target: T1, Monoamine oxidase; assay: Kinetic parameter (Km value) was determined
[4] = molecular target: T1, Monoamine oxidase; assay: Kinetic parameter (Kcat value) was determined

Ki [1] [µM]	Ki [2] [µM]	Km [3] [µM]	k cat [4] [min⁻¹]	SMILES
51	480	–	–	NC1(Cc2ccccc2)CC1
50	–	40	91	NCC1(c2ccccc2)CC1
